Experimental data reported in patent US20110002859A1, “CHEWING GUM CONTAINING EUCALYPTUS EXTRACT” (LOTTE CO., LTD., priority 2008, published 2011).
In brackets after ≈: the same amount, converted by molar mass.

Assays:
[1] = test system: periodontopathic bacteria; assay: In vitro growth prevention of all tested periodontopathic bacteria; assay type: cell-based; settings: all four strains of Table 1
Method: (§1) In vitro antibacterial activities of Macrocarpal A, macrocarpal B, and macrocarpal C were evaluated according to the following procedure. First, to 25 ml of a medium, added were 2.5 ml of various pre-cultured periodontopathic bacteria described below, and the whole was mixed well. A sample solution was prepared by diluting in two stages a sample stock solution on a 96-well plate by using a diluent. Within each well of the 96-well plate, 100 μl of the sample solution and 100 μl of a bacterial solution were mixed, and cultivated at 37° C. under an anaerobic condition for 24 to 48 hours. The turbidity (550 nm) of each well was measured with a microplate reader, the growth of the bacterium was assessed, and its minimum inhibitory concentration (MIC) was determined.

[2] = test system: Prevotella intermedia ATCC25611; assay: In vitro antibacterial activity, minimum inhibitory concentration (MIC); assay type: cell-based; settings: 37° C., anaerobic, 24 to 48 hours, turbidity 550 nm; read-out: MIC, bacterial strain b
Method: as §1, with “determined. […] (Used Bacterial Strain) b: Prevotella intermedia ATCC25611” for “determined.”

[3] = test system: Porphyromonas gingivalis ATCC33277; assay: as above; assay type: cell-based; settings: 37° C., anaerobic, 24 to 48 hours, turbidity 550 nm; read-out: MIC, bacterial strain a
Method: as §1, with “determined. […] (Used Bacterial Strain) a: Porphyromonas gingivalis ATCC33277” for “determined.”

[4] = test system: Capnocytophaga ochracea ATCC33596; assay: as above; assay type: cell-based; settings: 37° C., anaerobic, 24 to 48 hours, turbidity 550 nm; read-out: MIC, bacterial strain d
Method: as §1, with “determined. […] (Used Bacterial Strain) d: Capnocytophaga ochracea ATCC33596” for “determined.”

[5] = test system: Prevotella melaninogenica ATCC25845; assay: as above; assay type: cell-based; settings: 37° C., anaerobic, 24 to 48 hours, turbidity 550 nm; read-out: MIC, bacterial strain c
Method: as §1, with “determined. […] (Used Bacterial Strain) c: Prevotella melaninogenica ATCC25845” for “determined.”

[6] = test system: periodontopathic bacteria; settings: background art; cited from earlier work

| MIC [2] [µg/mL] | MIC [3] [µg/mL] | MIC [4] [µg/mL] | MIC [5] [µg/mL] | SMILES | concentration capable of preventing periodontopathic bacteria from growing up [1] [µg/mL] | antibacterial activities against periodontopathic bacteria [6] |
| --- | --- | --- | --- | --- | --- | --- |
| 0.195 (≈ 0.413 µM) | 0.195 (≈ 0.413 µM) | 0.39 (≈ 0.825 µM) | 0.78 (≈ 1.65 µM) | CC(C)C[C@@H](c1c(O)c(C=O)c(O)c(C=O)c1O)[C@@]1(C)CC[C@@H]2[C@@H]1[C@H]1[C@@H](CC[C@@]2(C)O)C1(C)C [Macrocarpal A, macrocarpal A] | 0.78 | – |
| 1.58 (≈ 3.34 µM) | 0.78 (≈ 1.65 µM) | 1.56 (≈ 3.3 µM) | 3.13 (≈ 6.62 µM) | CC(C)C[C@H](c1c(O)c(C=O)c(O)c(C=O)c1O)[C@@]1(C)CC[C@@H]2[C@@H]1[C@H]1[C@@H](CC[C@@]2(C)O)C1(C)C [Macrocarpal B, macrocarpal B] | 3.13 | – |
| 0.39 (≈ 0.858 µM) | 0.195 (≈ 0.429 µM) | 0.39 (≈ 0.858 µM) | 1.58 (≈ 3.48 µM) | C=C1CC[C@@H]2[C@H]([C@H]3[C@H]1CC[C@]3(C)[C@@H](CC(C)C)c1c(O)c(C=O)c(O)c(C=O)c1O)C2(C)C [Macrocarpal C, macrocarpal C] | 1.58 | – |
| – | – | – | – | CC12CCC(CC1)C(C)(C)O2 [cineole] | – | weak antibacterial activities |
